What was measured:
Experiment in all cases: cells
[1] = tested on: NCI-H1395; assay type: functional, cell-based, Homo sapiens; conditions: Homo sapiens, NCI-H1395;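 note: cell viability assay read-out quantifying reduced proliferation of human NCI-H1395 cells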
Description: SANGER: Inhibition of human NCI-H1395 cell growth in a cell viability assay.

[2] = tested on: HCC1187; assay type: functional, cell-based, Homo sapiens; conditions: Homo sapiens, HCC1187;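 note: growth inhibition of HCC1187 cells, read out with a cell viability assay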
Description: SANGER: Inhibition of human HCC1187 cell growth in a cell viability assay.

[3] = tested on: LOX IMVI; assay type: functional, cell-based, Homo sapiens; conditions: Homo sapiens, LOX IMVI
Description: SANGER: Inhibition of human LOXIMVI cell growth in a cell viability assay.

[4] = tested on: MPP-89; assay type: functional, cell-based, Homo sapiens; conditions: Homo sapiens, MPP-89;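 note: growth inhibition of human MPP-89 cells, read out with a cell viability assay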
Description: SANGER: Inhibition of human MPP-89 cell growth in a cell viability assay.

[5] = tested on: NCI-H720; assay type: functional, cell-based, Homo sapiens; conditions: Homo sapiens, NCI-H720;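 note: growth inhibition of human NCI-H720 cells determined by a cell viability assay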
Description: SANGER: Inhibition of human NCI-H720 cell growth in a cell viability assay.

[6] = tested on: RXF 393; assay type: functional, cell-based, Homo sapiens; conditions: Homo sapiens, RXF 393;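 note: growth inhibition of human RXF 393 cells, read out with a cell viability assay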
Description: SANGER: Inhibition of human RXF393 cell growth in a cell viability assay.

[7] = tested on: NB5; assay type: functional, cell-based, Homo sapiens; conditions: Homo sapiens, NB5;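 note: growth inhibition of NB5 cells, read out as cell viability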
Description: SANGER: Inhibition of human NB5 cell growth in a cell viability assay.

[8] = tested on: MOLT-4; assay type: functional, cell-based, Homo sapiens; conditions: Homo sapiens, MOLT-4;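 note: growth inhibition of MOLT-4 cells, determined with a cell viability readout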
Description: SANGER: Inhibition of human MOLT-4 cell growth in a cell viability assay.

[9] = tested on: K562; assay type: functional, cell-based, Homo sapiens; conditions: Homo sapiens, K562
Description: SANGER: Inhibition of human K-562 cell growth in a cell viability assay.

[10] = tested on: NCI-H1092; assay type: functional, cell-based, Homo sapiens; conditions: Homo sapiens, NCI-H1092;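 note: cell growth inhibition measured with a cell viability assay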
Description: SANGER: Inhibition of human NCI-H1092 cell growth in a cell viability assay.

[11] = tested on: BT-474; assay type: functional, cell-based, Homo sapiens; conditions: Homo sapiens, BT-474
Description: SANGER: Inhibition of human BT-474 cell growth in a cell viability assay.

[12] = tested on: VA-ES-BJ; assay type: functional, cell-based, Homo sapiens; conditions: Homo sapiens, VA-ES-BJ;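 note: growth inhibition of the VA-ES-BJ cell line, read out by a cell viability assay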
Description: SANGER: Inhibition of human VA-ES-BJ cell growth in a cell viability assay.

[13] = tested on: SW 954; assay type: functional, cell-based, Homo sapiens; conditions: Homo sapiens, SW 954;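 note: growth inhibition of SW954 human cancer cells, read out as cell viability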
Description: SANGER: Inhibition of human SW954 cell growth in a cell viability assay.

[14] = tested on: HEL; assay type: functional, cell-based, Homo sapiens; conditions: Homo sapiens, HEL;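 note: growth inhibition of HEL cells, read out with a cell viability assay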
Description: SANGER: Inhibition of human HEL cell growth in a cell viability assay.

[15] = tested on: HCE-4; assay type: functional, cell-based; conditions: Homo sapiens;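 note: cell viability assay measuring inhibition of growth in the human HCE-4 cell line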
Description: SANGER: Inhibition of human HCE-4 cell growth in a cell viability assay.

[16] = tested on: NCI-H1355; assay type: functional, cell-based, Homo sapiens; conditions: Homo sapiens, NCI-H1355;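 note: growth inhibition of human NCI-H1355 cells, read out by a cell viability assay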
Description: SANGER: Inhibition of human NCI-H1355 cell growth in a cell viability assay.

[17] = tested on: SK-LMS-1; assay type: functional, cell-based, Homo sapiens; conditions: Homo sapiens, SK-LMS-1;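 note: growth inhibition of human SK-LMS-1 cells, read out with a cell viability assay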
Description: SANGER: Inhibition of human SK-LMS-1 cell growth in a cell viability assay.

[18] = tested on: EW-13; assay type: functional, cell-based, Homo sapiens; conditions: Homo sapiens, EW-13; read-out: IC50;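 note: growth inhibition of EW-13 cells, read out with a cell viability assay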
Description: SANGER: Inhibition of human EW-13 cell growth in a cell viability assay.

[19] = tested on: COR-L88; assay type: functional, cell-based, Homo sapiens; conditions: Homo sapiens, COR-L88;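 note: growth inhibition of COR-L88 cells, read out with a cell viability assay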
Description: SANGER: Inhibition of human COR-L88 cell growth in a cell viability assay.

[20] = tested on: NCI-H2126; assay type: functional, cell-based, Homo sapiens; conditions: Homo sapiens, NCI-H2126;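 note: growth inhibition of the cancer cell line, determined with a cell viability readout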
Description: SANGER: Inhibition of human NCI-H2126 cell growth in a cell viability assay.

[21] = tested on: TE-12; assay type: functional, cell-based, Homo sapiens; conditions: Homo sapiens, TE-12;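 note: growth inhibition of TE-12 cells, read out by a cell viability assay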
Description: SANGER: Inhibition of human TE-12 cell growth in a cell viability assay.

[22] = tested on: GCIY; assay type: functional, cell-based, Homo sapiens; conditions: Homo sapiens, GCIY;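 note: growth inhibition of the human GCIY cell line, read out by a cell viability assay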
Description: SANGER: Inhibition of human GCIY cell growth in a cell viability assay.

[23] = tested on: MHH-NB-11; assay type: functional, cell-based, Homo sapiens; conditions: Homo sapiens, MHH-NB-11;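 note: growth inhibition of human MHH-NB-11 cells, read out by a cell viability assay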
Description: SANGER: Inhibition of human MHH-NB-11 cell growth in a cell viability assay.

[24] = tested on: NCI-H226; assay type: functional, cell-based, Homo sapiens; conditions: Homo sapiens, NCI-H226;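 note: cell viability read-out used to gauge growth inhibition of the cells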
Description: SANGER: Inhibition of human NCI-H226 cell growth in a cell viability assay.

[25] = tested on: ACN; assay type: functional, cell-based, Homo sapiens; conditions: Homo sapiens, ACN;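 note: growth inhibition of the human ACN cell line, read out via cell viability testing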
Description: SANGER: Inhibition of human ACN cell growth in a cell viability assay.

[26] = tested on: ALL-PO; assay type: functional, cell-based, Homo sapiens; conditions: Homo sapiens, ALL-PO;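 note: growth inhibition of ALL-PO cells, read out by a cell viability assay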
Description: SANGER: Inhibition of human ALL-PO cell growth in a cell viability assay.

[27] = tested on: ES1; assay type: functional, cell-based, Homo sapiens; conditions: Homo sapiens, ES1;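 note: growth inhibition of ES1 cells, read out with a cell viability assay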
Description: SANGER: Inhibition of human ES1 cell growth in a cell viability assay.

[28] = tested on: NCI-H1770; assay type: functional, cell-based, Homo sapiens; conditions: Homo sapiens, NCI-H1770;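 note: growth inhibition of NCI-H1770 cells determined with a viability readout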
Description: SANGER: Inhibition of human NCI-H1770 cell growth in a cell viability assay.

[29] = tested on: A253 cell line; assay type: functional, cell-based, Homo sapiens; conditions: Homo sapiens, A253;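 note: growth inhibition of A253 cells, read out with a cell viability assay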
Description: SANGER: Inhibition of human A253 cell growth in a cell viability assay.

[30] = tested on: KALS-1; assay type: functional, cell-based, Homo sapiens; conditions: Homo sapiens, KALS-1; read-out: IC50;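 note: growth inhibition of KALS-1 cells, determined with a cell viability assay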
Description: SANGER: Inhibition of human KALS-1 cell growth in a cell viability assay.

[31] = tested on: MN-60; assay type: functional, cell-based, Homo sapiens; conditions: Homo sapiens, MN-60;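 note: growth inhibition of the MN-60 cell line, determined with a cell viability assay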
Description: SANGER: Inhibition of human MN-60 cell growth in a cell viability assay.

[32] = tested on: IA-LM; assay type: functional, cell-based; conditions: Homo sapiens;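 note: cell viability assay measuring growth inhibition of human IA-LM cells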
Description: SANGER: Inhibition of human IA-LM cell growth in a cell viability assay.

[33] = tested on: DJM-1; assay type: functional, cell-based, Homo sapiens; conditions: Homo sapiens, DJM-1;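 note: growth inhibition of human DJM-1 cells, read out by a cell viability assay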
Description: SANGER: Inhibition of human DJM-1 cell growth in a cell viability assay.

[34] = tested on: U-266; assay type: functional, cell-based, Homo sapiens; conditions: Homo sapiens, U-266
Description: SANGER: Inhibition of human U-266 cell growth in a cell viability assay.

[35] = tested on: IST-SL1; assay type: functional, cell-based, Homo sapiens; conditions: Homo sapiens, IST-SL1;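 note: growth inhibition of human IST-SL1 cells, read out with a cell viability assay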
Description: SANGER: Inhibition of human IST-SL1 cell growth in a cell viability assay.

[36] = tested on: MV4-11; assay type: functional, cell-based, Homo sapiens, MV-4-11; conditions: Homo sapiens, MV4-11;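 note: cell viability readout measuring growth inhibition of human MV-4-11 cells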
Description: SANGER: Inhibition of human MV-4-11 cell growth in a cell viability assay.

[37] = tested on: TE-8; assay type: functional, cell-based, Homo sapiens; conditions: Homo sapiens, TE-8;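 note: growth inhibition of TE-8 cells, measured with a cell viability readout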
Description: SANGER: Inhibition of human TE-8 cell growth in a cell viability assay.

[38] = tested on: GI-ME-N; assay type: functional, cell-based, Homo sapiens; conditions: Homo sapiens, GI-ME-N;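 note: growth inhibition of human GI-ME-N cells, read out with a cell viability assay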
Description: SANGER: Inhibition of human GI-ME-N cell growth in a cell viability assay.

[39] = tested on: EW-3; assay type: functional, cell-based, Homo sapiens; conditions: Homo sapiens, EW-3;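 note: cell viability assay read-out, IC50 reflects inhibition of growth of the EW-3 cells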
Description: SANGER: Inhibition of human EW-3 cell growth in a cell viability assay.

[40] = tested on: OMC-1; assay type: functional, cell-based, Homo sapiens; conditions: Homo sapiens, OMC-1;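 note: growth inhibition of the OMC-1 cell line, measured by a cell viability assay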
Description: SANGER: Inhibition of human OMC-1 cell growth in a cell viability assay.

[41] = tested on: P30-OHK; assay type: functional, cell-based, Homo sapiens; conditions: Homo sapiens, P30-OHK;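 note: growth inhibition of the P30-OHK cell line, read out with a cell viability assay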
Description: SANGER: Inhibition of human P30-OHK cell growth in a cell viability assay.

[42] = tested on: BE-13; assay type: functional, cell-based, Homo sapiens; conditions: Homo sapiens, BE-13;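 note: growth inhibition of human BE-13 cells, measured with a cell viability assay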
Description: SANGER: Inhibition of human BE-13 cell growth in a cell viability assay.

[43] = tested on: SK-MEL-2; assay type: functional, cell-based, Homo sapiens; conditions: Homo sapiens, SK-MEL-2;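 note: growth inhibition of human SK-MEL-2 cells measured with a cell viability assay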
Description: SANGER: Inhibition of human SK-MEL-2 cell growth in a cell viability assay.

[44] = tested on: SK-N-DZ; assay type: functional, cell-based, Homo sapiens; conditions: Homo sapiens, SK-N-DZ; read-out: IC50;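 note: growth inhibition of the cancer cell line, read out through a viability assay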
Description: SANGER: Inhibition of human SK-N-DZ cell growth in a cell viability assay.

[45] = tested on: NCI-H446; assay type: functional, cell-based, Homo sapiens; conditions: Homo sapiens, NCI-H446;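 note: growth inhibition of NCI-H446 cells determined by a cell viability assay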
Description: SANGER: Inhibition of human NCI-H446 cell growth in a cell viability assay.

[46] = tested on: NB10; assay type: functional, cell-based, Homo sapiens; conditions: Homo sapiens, NB10;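 note: growth inhibition of NB10 cells, read out by a cell viability assay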
Description: SANGER: Inhibition of human NB10 cell growth in a cell viability assay.

[47] = tested on: NCI-H1648; assay type: functional, cell-based, Homo sapiens; conditions: Homo sapiens, NCI-H1648;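 note: cell viability assay measuring inhibition of NCI-H1648 cell growth, from the Sanger screening data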
Description: SANGER: Inhibition of human NCI-H1648 cell growth in a cell viability assay.

[48] = tested on: Calu-6; assay type: functional, cell-based, Homo sapiens; conditions: Homo sapiens, Calu-6;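 note: growth of human Calu-6 cells, read out by a cell viability assay, IC50 marking inhibition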
Description: SANGER: Inhibition of human Calu-6 cell growth in a cell viability assay.

[49] = tested on: CGTH-W-1; assay type: functional, cell-based, Homo sapiens; conditions: Homo sapiens, CGTH-W-1;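 note: growth inhibition of human CGTH-W-1 cells measured by cell viability assay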
Description: SANGER: Inhibition of human CGTH-W-1 cell growth in a cell viability assay.

Measured: IC50

C=CC(=O)N1CCCC(Nc2nc(Nc3ccc(N(C)C(=O)CC)cc3)nc3[nH]cnc23)C1 (stereo not drawn)
2.39 µM: [36]
2.35 µM: [21]
2.56 µM: [13]
8.58 µM: [47]
> 10.2 µM: all other assays above

COc1ccc(N(C(=O)Oc2c(C)cccc2C)c2ccnc(Nc3ccc(N4CCN(C)CC4)cc3)n2)c(OC)c1
0.463 µM: [12]
0.106 µM: [6]
0.0823 µM: [4]
4.88 µM: [16]
3.25 µM: [38]
0.239 µM: [37]
< 0.02 µM: [9]
4.23 µM: [25]
0.516 µM: [47]
1.23 µM: [22]
0.372 µM: [13]
0.888 µM: [21]
> 5.12 µM: all other assays above

Reference: ChEMBL document CHEMBL1201861, “Genomics of Drug Sensitity in Cancer screening data, Wellcome Trust Sanger Institute”
